In a melting point compilation (Tetko et al.; mined from patent text by program, amines drawn as free bases though some values may be those of a salt):
Residues, ends and D or L forms follow the SMILES beside them.

Row | melting point [°C] | SMILES
1 | 191 to 193 | CCOC(=O)Nc1ccc2nc(OCC)oc(=O)c2c1
2 | 86 | COc1ccc(Nc2ccnc(Nc3cc(OC)c(OC)c(OC)c3)n2)cc1OC
3 | 99 to 104 | CCCCCNc1nc(C)c(C(=O)c2ccc(Cl)c([N+](=O)[O-])c2)s1
4 | 120 to 124 | CNc1ccc(C(=O)OC)c(S(=O)(=O)NC(C)(C)C)c1
5 | 44 to 47 | Nn1cccc1C(=O)c1ccccc1F
6 | 176 to 177 | O=c1[nH]c2cc(OCCN3CCC(Cc4ccccc4)CC3)ccc2o1
7 | 101 to 105 | Cc1cc2c(cc1C(F)(F)F)N(c1ccc(C(=O)O)cc1)CCC[C@@H]2N(Cc1cc(C(F)(F)F)cc(C(F)(F)F)c1)c1nnn(C)n1
8 | > 250 | COc1cc2cc(CO)nc(-c3ccnc(-n4nc(-c5cccnc5)c5ccccc5c4=O)c3)c2cc1OC
9 | 99 | COC(=O)C1=C(C)NC(C)=C(C(=O)OCCN(C)C)C1c1cccc2nonc12 (stereo not drawn)
10 | 137 to 139 | COc1ccc2c3c(c(=O)oc2c1)CN(Cc1ccccc1Cl)CC3
11 | 152 | Clc1ccc2nc(Cl)cnc2c1
12 | 201 to 202 | Cc1ccc(-c2ccc3c(c2)C=C(C(=O)Nc2ccc(CCN4CCCCC4)cc2)CCO3)cc1
13 | 128 to 129 | N#Cc1ccc(OCCCOc2cccc(-c3cc4ccc(C#N)cc4o3)c2)cc1
14 | 142 to 144 | CC(=O)NC1CCN(c2c(F)cc([N+](=O)[O-])c(F)c2CO)C1 (stereo not drawn)
15 | 208 | CC1(C)CCC(=O)Nc2ccc([N+](=O)[O-])cc21
16 | 122 | CCOC(=O)CN(Cc1ccccc1)C(=O)Cn1c2cccc(OCc3ccccc3)c2c2c(COC)c(C(=O)OC(C)C)ncc21
17 | 212 to 214 | Cc1nc(Cc2ccccc2)c2c(c1O)COC2
18 | 110 to 111 | CC(C)Nc1cccnc1N1CCN(C(=O)c2ccc(C(=O)NCCCO)cc2)CC1
19 | 119 to 120 | O=C(NC(=NCCCCc1cccnc1)NCCCc1c[nH]cn1)c1ccccc1
20 | 94 to 95 | CCC(CC)c1ccc(Cl)c2nc(Cl)n(C)c12
21 | 216 to 218 | O=c1nc(-c2ccccc2)c2cc([N+](=O)[O-])sc2n1CC1CC1
22 | 155 to 158 | COc1ccc2c(c1[N+](=O)[O-])C(=O)CC2
23 | 115 | O=C1CCCCCN1C(=O)N1CCCCCC1=O
24 | 60 to 62 | COC(=O)CCCCCCc1ncsc1C=O
25 | 80.8 to 81.9 | CCCCCCCCCCCCCCCCC(N)CO (stereo not drawn)

Row | melting point [°C] | SMILES
26 | 69 to 71 | N#CCCCCCNC(N)=S
27 | 206 to 207 | CC(C)(C)OCC(NC(=O)c1ccccc1SSc1ccccc1C(=O)NC(COC(C)(C)C)C(=O)O)C(=O)O (stereo not drawn)
28 | 36 to 37 | CC(C)(C)OC(=O)NCCCCCCO
29 | 241 to 243 | ON=C1c2ccccc2CSc2ccccc21
30 | 108 to 110 | CC(C)COc1c(-c2ccc(S(C)(=O)=O)cc2)cnn(CC(F)(F)F)c1=O
31 | 91 to 93 | CN(Cc1ccccc1)CC1CCSc2[nH]c3ccccc3c21 (stereo not drawn)
32 | 158 to 160 | CSc1nnc(-c2cc3c(Oc4ccc(Cl)cc4)cncc3s2)o1
33 | 121 to 123 | Nc1cnc2ccsc2c1
34 | 115 to 117 | N#Cc1[nH]c2ccc(Cl)cc2c1-c1ccccc1
35 | 216 to 218 | CC(C)(Cc1ccc(OCCCC(=O)O)cc1)NCC(O)c1cc(OCc2ccccc2)cc2c1OCC(=O)N2 (stereo not drawn)
36 | 151 to 153 | COc1ccccc1C=C1N=C(C)OC1=O
37 | > 200 | Oc1cccc(-c2nc(-c3cccnc3)no2)c1
38 | 117 to 119 | N=Cc1ccccc1[N+](=O)[O-]
39 | 87 to 88 | CCOC(=O)COc1ccc([N+](=O)[O-])cc1OC
40 | 147 to 148 | CC1CC(N)=NN1c1cncc(Cl)n1 (stereo not drawn)
41 | 121 to 123 | CSc1noc(-c2ccc(OCCCOc3ccccc3)cc2)c1C#N
42 | 98 to 100 | CCOC(=O)c1cc(=O)c2c(OCC(O)COc3ccc(Cl)cc3Cl)cccc2o1 (stereo not drawn)
43 | 66 to 75 | COC(=O)c1ccc(OCCNC(=O)C2Cc3ccccc3N2S(=O)(=O)c2ccc(-c3ccc(F)cc3C)cc2)cc1F (stereo not drawn)
44 | 184 to 185 | N#Cc1cc(-n2ccc(-c3ccc(F)cc3)n2)cc(S(N)(=O)=O)c1
45 | 113 to 115 | CCC(CC)NCc1cnc2c(C)c(NC(=O)c3ccc(OC[C@@H]4CCCO4)cc3)ccc2c1
46 | 127 to 129 | Cc1cc(Cn2cc(C(F)(F)C(F)(F)F)c(C(F)(F)C(F)(F)F)n2)ccc1NC(=O)c1cccc(Br)c1C(=O)N[C@@H](C)CS(C)=O (stereo partly drawn)
47 | 169 to 170 | CCCSc1ncc(CCC(=O)O)n1Cc1ccccc1Cl
48 | 113 to 117 | O=C(O)c1cc(Oc2cc(F)c(C(F)(F)F)c(Cl)c2)ccc1Br
49 | 222 to 225 | C[C@H](N)C(=O)NCc1cccc(Nc2n[nH]c3ncnc(Nc4cccc(Cl)c4)c23)c1
50 | 125 to 126 | Cc1c(SCCCSCCO)ccnc1CNc1cnc2ccccc2c1

Row | melting point [°C] | SMILES
51 | 120 | Nc1cc(Cl)c(Cl)cc1NCCO
52 | 168 to 170 | COC(=O)C1=Cc2cc(-c3ccc(C(F)(F)F)cc3)ccc2S(=O)(=O)CC1
53 | 35 | CCCCNc1cccc(O)c1
54 | 174 to 175 | Cc1ccccc1P(=O)(O)c1ccccc1C
55 | 188 to 189 | CCCCc1nc2c(N)nc3cccnc3c2n1CCNC(=O)c1c(C)noc1C
56 | 112 to 114 | Oc1cccc2c1OCCCO2
57 | 145 to 146 | CCCc1nn(-c2ccc(C(F)(F)F)cn2)cc1CCCOc1c(Br)cccc1CC(=O)O
58 | 247 to 249 | Cc1cccc2oc(=O)c(=O)[nH]c12
59 | 84.2 to 86.1 | COc1ccc(Cn2cc(C(F)(F)F)ccc2=O)cc1
60 | 280 to 295 | Cc1[nH]c(=O)c2ccccc2c1CC(=O)O
61 | 166 to 167 | CC#Cc1ccc2[nH]c(C(=O)OCC)cc2c1
62 | 147 to 148 | Cc1cc(-c2ccccc2)nc(-c2cccc([N+](=O)[O-])c2)c1C(=O)NCCN1CCOCC1
63 | 97 to 98 | N#CCC(C#N)NNc1ccccc1 (stereo not drawn)
64 | 124 to 127 | O=C(CC1CCCCCC1=O)c1ccc(Br)cc1 (stereo not drawn)
65 | 201 to 202 | O=Cc1ccc2cc3ccccc3cc2c1
66 | 271 to 272 | Oc1c2c(nc3c(-c4cc(-c5ccccc5)cs4)cnn13)CCCC2
67 | 82 to 83 | COCOc1cc(CO)n(Cc2ccc(Cl)cc2Cl)n1
68 | 58 to 60 | CCN(CCOc1cccnc1F)CCN1C(=O)c2ccccc2C1=O
69 | 243 to 245 | COc1cccc2c(Nc3ccc(O)cc3C)c(C(=O)C(C)C)cnc12
70 | 209 to 212 | CCCCCCCNC(=O)Nc1c(C(=O)NC2CCN(C(c3ccccc3)c3ccccc3)CC2)cccc1C(C)C
71 | 218 | Cc1ccnc(N2CCN(CCc3c(C)n4c5c(cc(NC(=O)c6ccccc6)cc35)CCC4)CC2)c1
72 | 196 to 199 | O=C(NO)c1ccc2c(c1)CN(C(=O)OCc1cccnc1)C2
73 | 149 to 151 | CCCCCS(=O)(=O)NC(=O)/C=C/c1cc(C(C)C)nn1Cc1ccc(Cl)cc1Cl
74 | 78 to 79 | Cc1ccc(C)c2c(OCCNC(=O)OC(C)(C)C)noc12
75 | 196 to 197 | N#CN=C(NCNC(=O)c1ccc(Cl)cc1)Nc1cccnc1

Row | melting point [°C] | SMILES
76 | 116 to 120 | Cc1cn(S(=O)(=O)c2ccccc2)c2ccccc12
77 | 193 to 194 | CN1CCN(c2ccccc2C=CC(=O)NCc2ccc(Cl)cc2)CC1
78 | 206 to 207 | N#Cc1cnn2c1NCCC2
79 | 204 to 206 | COc1ccc(N(CCCC(=O)O)C(=O)C(C)N(C(=O)c2ccco2)c2ccc(OC)cc2)cc1 (stereo not drawn)
80 | 155 to 158 | NC(=O)NC(=S)NC(=O)c1ccc(Cl)cc1
81 | 173 | COc1ccc(C(=O)Nc2nc3ccc(N4CCN(C)CC4)cc3c(NCc3ccccc3)c2C#N)cc1
82 | 128 to 129 | CC(=O)NC1C(OCc2ccccc2)OC(COCc2ccccc2)C(OCc2ccccc2)C1OCC(=O)O (stereo not drawn)
83 | > 300 | O=C(NN1CCNC1=O)c1c[nH]c2cc(O)c(O)cc2c1=O
84 | 80 to 82 | CC(C)(C)Oc1ccc(C[C@H](NC(=O)OCc2ccccc2)C(=O)C=[N+]=[N-])cc1
85 | 76 to 80 | CC(C)(C)OC(=O)NCC(=O)SCC(Cc1ccccc1)C(=O)Nc1cccc(C(=O)O)c1 (stereo not drawn)
86 | 205 to 207 | CC(=O)c1c(C)[nH]c(-c2ccncc2)c1C
87 | 126 to 127 | Clc1cc(CCc2ccccn2)c2oc(-c3ccsc3)nc2c1
88 | 178 to 182 | Clc1ccc(C=Cc2nc[nH]n2)cc1
89 | 71 to 72 | COC(=O)C1=C(CF)NC(C)=C(C(=O)OC(C)C)C1c1ccccc1C(F)(F)F (stereo not drawn)
90 | 152 to 155 | CCOC(=O)c1nc(C)oc1C(=O)NC(C)(C)C
91 | 212 to 214 | CCCCC(CC(=O)Nc1cc(C(N)=O)ccc1C(C)(C)C)c1cc(Cl)c(OC)cc1OC (stereo not drawn)
92 | 225 to 228 | Cn1cc(O)c(=O)c2ccc(Cl)cc21
93 | 112 to 113 | CNC(=C[N+](=O)[O-])NCCSCc1ccccn1
94 | 160 | CC(C)CCCC(C)C1CCC2C3CC=C4CC(OCC(=O)O)CCC4(C)C3CCC12C (stereo not drawn)
95 | 212 to 213 | Cc1c(C=NO)c2cc(Cl)ccc2n1-c1ccc(O)cc1
96 | 226 | Nc1nc(-c2ccc3ncccc3c2)c(-c2ccccn2)s1
97 | 129 to 131 | C=C(C)C(=O)Oc1ccc(NS(C)(=O)=O)cc1
98 | 91 to 95 | CN(C)CCCNC(=O)N1CCN(c2ccccc2)CC1
99 | 197 to 198 | Cc1cc(N2NCCNC2=O)cc(Cl)c1Cc1ccc(Cl)cc1

Row | SMILES | melting point [°C]
100 | CC(C)CC(NC(=O)C(Cc1ccccc1)NC(=O)CNC(=O)C(C)NC(=O)C(N)Cc1ccc(O)cc1)C(=O)NC(CCCNC(=N)N)C(=O)O (stereo not drawn) (H-YAGFLR-OH; configuration not given here) | 173 to 176
101 | Cc1cccc(Cn2c(NC3CCN(CCc4c(C)nc5ccccn5c4=O)CC3)nc3cccnc32)n1 | 233
102 | CN(COC(=O)Cc1ccccc1)C(=O)OC(C)(C)C | 96 to 98
103 | O=c1oc2ccccc2cc1CCN1CCC(Nc2nc3ccccc3n2Cc2ccc(F)cc2)CC1 | 168
